From patent US20030162782A1, “Treatment of neuropathy” (priority 1999, published 2003)

Tests used:
[1] = system: men demonstrating positive symptoms of diabetic neuropathy; test: Clinical trial of sildenafil versus placebo (crossover) with pain assessments (PDI, VAS Pain Score, Verbal Evaluation of Pain Relief); assay type: in vivo, human; details: 50 mg every night for 10 days, pain assessed by PDI, VAS Pain Score and Verbal Evaluation of Pain Relief
Protocol: The study was conducted using sidenafil, however it will be appreciated that the study may be conducted with other cGMP PDE5 inhibitors, for example one or more of the preferred cGMP PDE5 inhibitors listed hereinabove.
The patients then underwent a 7-day treatment-free phase in order to establish baseline data, including a series of pain assessments comprising determining the Pain Disability Index (PDI) (adapted from Tait et al 1990), the Visual Analogue Scale (VAS) Pain Score, and the Verbal Evaluation of Pain Relief. They were then treated with either sildenafil (50 mg) or placebo every night for 10 days and immediately after this period the patient's degree of pain was reassessed. A washout period of 10 days followed where the patients received no treatment. […] Immediately after this period the patient's degree of pain was assessed.
Pain Disability Index (PDI) is determined by patient questionnaire, and measures the overall impact of pain (on a scale of 0 to 10) associated with normal daily activities, (i.e. family/home responsibilities, recreation, social activity, occupation, self-care, sleeping). […]
Visual Analogue Scale (VAS) Pain Score is determined by the patient indicating on a continuous line from 0 (=no pain) to 100 (=pain as bad as it could be) the average level of a pain experienced during the assessment period. […]

[2] = system: patients with diabetic polyneuropathy; test: Anecdotal reports in patients with diabetic polyneuropathy after single doses of sildenafil; assay type: in vivo, human; details: single doses of 50 mg

| SMILES | melting point | degree of pain experienced [1] | painful symptoms [2] |
| --- | --- | --- | --- |
| CCCOc1ncc(C(C)=O)cc1-c1nc2c(CC)n(C3CN(C(C)C)C3)nc2c(=O)[nH]1 [Example 4, 5-(5-Acetyl-2-propoxy-3-pyridinyl)-3-ethyl-2-(1-isopropyl-3-azetidinyl)-2,6-dihydro-7H-pyrazolo[4,3-d]pyrimidin-7-one] | 162.8 to 163.6 °C | – | – |
| CCCc1nn(C)c2c(=O)[nH]c(-c3cc(S(=O)(=O)N4CCN(C)CC4)ccc3OCC)nc12 [sildenafil, 5-[2-ethoxy-5-(4-methyl-1-piperazinylsulphonyl)phenyl]-1-methyl-3-n-propyl-1,6-dihydro-7H-pyrazolo[4,3-d]pyrimidin-7-one] | – | reduction in the degree of pain experienced in a number of patients | improvement in painful symptoms |
